Publication PMC4978508, “Using Carbohydrate Interaction Assays to Reveal Novel Binding Sites in Carbohydrate Active Enzymes” (PLoS ONE, 2016)
Read-outs that look alike come from different tables or passages of the source.

Tests used:
Format in all cases: binding
[1] = target: T1, GH8-1; endoglucanase from Clostridium thermocellum (Acetivibrio thermocellus, UniProt A3DC29); test: SPR (Biacore T100), enzyme amine-coupled to CM5 chip; conditions: one-site fit; immobilised enzyme; stoichiometry above 2 (several sites)
T1 construct: gene celA; commercial recombinant (NZYtech), no CBM; amine-coupled to CM5 chip
T1 sequence (A3DC29 33-477): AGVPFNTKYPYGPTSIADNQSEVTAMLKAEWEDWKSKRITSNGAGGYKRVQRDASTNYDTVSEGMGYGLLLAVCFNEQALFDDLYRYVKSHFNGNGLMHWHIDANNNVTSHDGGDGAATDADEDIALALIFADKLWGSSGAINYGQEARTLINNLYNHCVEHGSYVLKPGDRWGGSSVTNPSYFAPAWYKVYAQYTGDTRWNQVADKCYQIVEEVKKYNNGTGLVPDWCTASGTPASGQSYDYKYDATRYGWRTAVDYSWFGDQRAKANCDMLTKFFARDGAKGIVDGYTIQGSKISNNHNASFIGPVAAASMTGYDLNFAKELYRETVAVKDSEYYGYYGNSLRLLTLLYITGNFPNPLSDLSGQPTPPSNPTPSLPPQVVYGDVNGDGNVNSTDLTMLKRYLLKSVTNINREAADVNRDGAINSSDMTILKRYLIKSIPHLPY
Text: SPR (Biacore T100), enzyme amine-coupled to CM5 chip on GH8-1; endoglucanase from Clostridium thermocellum

[2] = target: T2, GH6-1; endoglucanase from Thermobifida fusca (Thermobifida fusca, UniProt P26222); test: as above; conditions: one-site fit; immobilised enzyme
T2 construct: gene celB; gift of David Wilson; amine-coupled to CM5 chip
Text: SPR (Biacore T100), enzyme amine-coupled to CM5 chip on GH6-1; endoglucanase from Thermobifida fusca

[3] = target: T3, GH48-1; processive endoglucanase from Clostridium cellulolyticum (Ruminiclostridium cellulolyticum, UniProt P37698); test: as above; conditions: one-site fit; immobilised enzyme
T3 construct: gene celCCF; commercial recombinant (NZYtech), no CBM; amine-coupled to CM5 chip
T3 sequence (P37698 30-650 limits assumed): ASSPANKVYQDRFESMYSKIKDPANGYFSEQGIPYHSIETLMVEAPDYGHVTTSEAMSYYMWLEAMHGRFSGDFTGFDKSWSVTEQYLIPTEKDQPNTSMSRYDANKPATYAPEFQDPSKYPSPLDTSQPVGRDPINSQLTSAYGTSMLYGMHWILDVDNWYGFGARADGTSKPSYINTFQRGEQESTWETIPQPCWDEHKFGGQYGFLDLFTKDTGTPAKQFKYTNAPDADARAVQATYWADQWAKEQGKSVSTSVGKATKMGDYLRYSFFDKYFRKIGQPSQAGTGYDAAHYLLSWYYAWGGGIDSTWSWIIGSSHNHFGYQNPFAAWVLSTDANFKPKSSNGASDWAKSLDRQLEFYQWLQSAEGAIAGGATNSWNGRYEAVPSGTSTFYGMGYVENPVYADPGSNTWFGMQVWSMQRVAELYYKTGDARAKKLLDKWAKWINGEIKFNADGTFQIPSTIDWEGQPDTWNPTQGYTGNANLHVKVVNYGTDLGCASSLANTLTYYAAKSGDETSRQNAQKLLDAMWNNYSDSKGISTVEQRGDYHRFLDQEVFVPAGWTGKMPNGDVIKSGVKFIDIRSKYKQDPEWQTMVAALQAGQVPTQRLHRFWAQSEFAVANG
Text: SPR (Biacore T100), enzyme amine-coupled to CM5 chip on GH48-1; processive endoglucanase from Clostridium cellulolyticum

[4] = target: T4, GH13-6; pig pancreatic α-amylase (Sus scrofa, UniProt P00690); test: SPR (Biacore T100), biotinylated enzyme on streptavidin chip
T4 construct: gene AMY2; native porcine pancreas enzyme from Sigma; biotinylated, on streptavidin chip
T4 sequence (P00690 16-511): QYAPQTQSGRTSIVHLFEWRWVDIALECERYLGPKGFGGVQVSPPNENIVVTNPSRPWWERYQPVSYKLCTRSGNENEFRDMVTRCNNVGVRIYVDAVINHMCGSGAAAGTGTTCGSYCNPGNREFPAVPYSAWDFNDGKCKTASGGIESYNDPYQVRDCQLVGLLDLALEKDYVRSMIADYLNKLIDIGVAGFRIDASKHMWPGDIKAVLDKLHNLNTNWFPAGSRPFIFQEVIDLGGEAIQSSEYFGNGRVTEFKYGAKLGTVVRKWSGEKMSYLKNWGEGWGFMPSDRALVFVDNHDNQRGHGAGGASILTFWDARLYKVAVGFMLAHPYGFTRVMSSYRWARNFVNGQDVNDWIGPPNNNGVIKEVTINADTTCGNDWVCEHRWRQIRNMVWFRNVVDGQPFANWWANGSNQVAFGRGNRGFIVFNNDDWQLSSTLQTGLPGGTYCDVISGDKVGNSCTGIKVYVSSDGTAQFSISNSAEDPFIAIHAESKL
Text: SPR (Biacore T100), biotinylated enzyme on streptavidin chip on GH13-6; pig pancreatic α-amylase

[5] = target: T1, GH8-1; endoglucanase from Clostridium thermocellum; test: SPR (Biacore T100), enzyme amine-coupled to CM5 chip; conditions: immobilised enzyme; ligand 10-5000 μM; weak, not saturable
[6] = target: T5, GH13-5; pullulanase from Bacillus subtilis (Bacillus subtilis, UniProt C0SPA0); test: SPR (Biacore T100), biotinylated enzyme on streptavidin chip
T5 construct: gene amyX; commercial recombinant (Prozomix); contains CBM48; biotinylated, on streptavidin chip
T5 sequence (C0SPA0 1-718): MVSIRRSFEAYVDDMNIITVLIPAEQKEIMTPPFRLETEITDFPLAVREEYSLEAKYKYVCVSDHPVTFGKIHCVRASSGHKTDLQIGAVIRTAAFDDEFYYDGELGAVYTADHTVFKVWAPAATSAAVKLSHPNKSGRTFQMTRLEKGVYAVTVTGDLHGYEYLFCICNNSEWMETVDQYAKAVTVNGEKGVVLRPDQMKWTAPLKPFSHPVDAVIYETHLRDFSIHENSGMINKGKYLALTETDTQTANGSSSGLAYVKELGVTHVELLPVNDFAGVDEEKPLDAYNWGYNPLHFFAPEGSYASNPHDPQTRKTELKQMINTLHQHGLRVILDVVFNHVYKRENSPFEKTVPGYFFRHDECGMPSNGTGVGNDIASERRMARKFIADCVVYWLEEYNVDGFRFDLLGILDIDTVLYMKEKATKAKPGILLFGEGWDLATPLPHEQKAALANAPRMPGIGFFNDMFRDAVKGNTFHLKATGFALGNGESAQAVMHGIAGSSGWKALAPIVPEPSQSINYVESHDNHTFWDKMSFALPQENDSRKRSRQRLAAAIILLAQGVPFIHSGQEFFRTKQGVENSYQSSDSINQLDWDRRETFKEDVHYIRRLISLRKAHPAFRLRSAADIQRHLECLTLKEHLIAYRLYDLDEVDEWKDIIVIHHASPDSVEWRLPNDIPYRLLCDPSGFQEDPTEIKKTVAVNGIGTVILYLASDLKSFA
Text: SPR (Biacore T100), biotinylated enzyme on streptavidin chip on GH13-5; pullulanase from Bacillus subtilis

[7] = target: T6, GH13-3; E. coli α-amylase (Escherichia coli, UniProt P26612); test: as above
T6 construct: gene amyA; commercial recombinant (Prozomix); biotinylated, on streptavidin chip; GH13 subfamily 5 implied by homology to Bacillus sp
T6 sequence (P26612 1-495): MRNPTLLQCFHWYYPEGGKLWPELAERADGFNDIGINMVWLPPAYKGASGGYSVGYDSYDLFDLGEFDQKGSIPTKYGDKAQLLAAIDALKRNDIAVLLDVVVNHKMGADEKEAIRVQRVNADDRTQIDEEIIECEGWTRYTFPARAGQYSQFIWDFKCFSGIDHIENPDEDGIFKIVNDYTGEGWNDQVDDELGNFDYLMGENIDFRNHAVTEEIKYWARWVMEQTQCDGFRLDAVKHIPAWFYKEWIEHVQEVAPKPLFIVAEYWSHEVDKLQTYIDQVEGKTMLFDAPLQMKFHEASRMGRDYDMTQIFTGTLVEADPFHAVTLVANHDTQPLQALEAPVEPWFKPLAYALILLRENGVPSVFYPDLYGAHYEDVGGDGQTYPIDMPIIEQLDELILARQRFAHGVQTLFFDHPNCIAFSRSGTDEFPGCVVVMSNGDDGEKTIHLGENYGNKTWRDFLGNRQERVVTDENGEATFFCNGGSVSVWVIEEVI
Text: SPR (Biacore T100), biotinylated enzyme on streptavidin chip on GH13-3; E. coli α-amylase

T2 sequence (P26222 32-322 limits assumed): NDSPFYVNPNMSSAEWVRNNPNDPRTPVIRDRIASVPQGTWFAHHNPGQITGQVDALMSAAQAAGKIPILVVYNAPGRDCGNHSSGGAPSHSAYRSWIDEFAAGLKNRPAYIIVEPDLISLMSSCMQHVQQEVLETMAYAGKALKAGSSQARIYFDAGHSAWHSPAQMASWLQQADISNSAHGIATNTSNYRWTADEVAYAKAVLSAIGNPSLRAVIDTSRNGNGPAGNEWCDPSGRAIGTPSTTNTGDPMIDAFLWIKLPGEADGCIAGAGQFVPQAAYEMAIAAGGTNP

Q: How did the Kd [1] turn out when `OC[C@H]1O[C@@H](O[C@H]2[C@H](O)[C@@H](O)[C@H](O[C@H]3[C@H](O)[C@@H](O)[C@H](O[C@H]4[C@H](O)[C@@H](O)[C@H](O[C@H]5[C@H](O)[C@@H](O)C(O)O[C@@H]5CO)O[C@@H]4CO)O[C@@H]3CO)O[C@@H]2CO)[C@H](O)[C@@H](O)[C@@H]1O` (stereo partly drawn) [cellopentaose] was run?
A: 860 ± 90 µM

Q: What about the Kd [2] of the same molecule?
A: 330 ± 110 µM

Q: And the Kd [3]?
A: 2070 ± 780 µM

Q: How did the Kd ([4]; one-site fit, immobilised enzyme, stoichiometry above 1 (several sites)) turn out when `OC[C@H]1O[C@H](O[C@H]2[C@H](O)[C@@H](O)[C@@H](O[C@H]3[C@H](O)[C@@H](O)[C@@H](O[C@H]4[C@H](O)[C@@H](O)[C@@H](O[C@H]5[C@H](O)[C@@H](O)[C@@H](O[C@H]6[C@H](O)[C@@H](O)C(O)O[C@@H]6CO)O[C@@H]5CO)O[C@@H]4CO)O[C@@H]3CO)O[C@@H]2CO)[C@H](O)[C@@H](O)[C@@H]1O` (stereo partly drawn) [maltohexaose] was run?
A: 1330 ± 120 µM

Q: `OC[C@H]1O[C@H](O[C@H]2[C@H](O)[C@@H](O)[C@@H](O[C@H]3[C@H](O)[C@@H](O)[C@@H](O[C@H]4[C@H](O)[C@@H](O)C(O)O[C@@H]4CO)O[C@@H]3CO)O[C@@H]2CO)[C@H](O)[C@@H](O)[C@@H]1O` (stereo partly drawn) [maltotetraose] was tested. Which NS [5] did it give?
A: GH8-1 interacts weakly with these oligosaccharides

Q: With `OC1OC[C@@H](O[C@@H]2OC[C@@H](O[C@@H]3OC[C@@H](O[C@@H]4OC[C@@H](O)[C@H](O)[C@H]4O)[C@H](O)[C@H]3O)[C@H](O)[C@H]2O)[C@H](O)[C@H]1O` (stereo partly drawn) [xylotetraose] as the molecule, how does the NS [5] read?
A: GH8-1 interacts weakly with these oligosaccharides

Q: `OC[C@H]1O[C@@H]2O[C@H]3[C@H](O)[C@@H](O)[C@@H](O[C@H]4[C@H](O)[C@@H](O)[C@@H](O[C@H]5[C@H](O)[C@@H](O)[C@@H](O[C@H]6[C@H](O)[C@@H](O)[C@@H](O[C@H]7[C@H](O)[C@@H](O)[C@@H](O[C@H]8[C@H](O)[C@@H](O)[C@@H](O[C@H]1[C@H](O)[C@H]2O)O[C@@H]8CO)O[C@@H]7CO)O[C@@H]6CO)O[C@@H]5CO)O[C@@H]4CO)O[C@@H]3CO` [β-cyclodextrin] was tested. Which Kd [6] did it give?
A: 970 ± 130 µM

Q: What about the Kd [4] of the same molecule?
A: 870 ± 400 µM

Q: And the Kd [7]?
A: 1360 ± 50 µM
